{
  "source": "patent US7332290B2",
  "about": "“Dectection of AMACR cancer markers in urine” (The Regents of the University of Michigan, priority 2001, dated 2008)",
  "type_in_all_cases": "cell-based",
  "key": {"LNCaP cells": {"tested_on": "LNCaP cells", "assay": "Androgen/anti-androgen treatment of LNCaP cells, Western blot of AMACR and PSA", "conditions": "LNCaP cells exposed to synthetic androgen, 1 nM, 24 and 48 h", "procedure": "Prostate cell lines (RWPE-1, LNCaP, PC3 and DU145) were obtained from the American Tissue Culture Collection. Cells were maintained in RPMI-1640 with 8% decomplemented fetal bovine serum, 0.1% glutamine and 0.1% penicillin and streptomycin (BioWhittaker, Walkersville, Md.). Cells were grown to 75% confluence and then treated for 24 and 48 with the antiandrogen bicalutamide (CASODEX, Zeneca Pharmaceuticals, Plankstadt, Germany) at a final concentration of 20 μM or with methyltrienolone (synthetic androgen (R1881); NEN, Life Science Products, Boston, Mass.) at a final concentration of 1 nM. Cells were harvested and lysed in NP-40 lysis buffer containing 50 mmol/L Tris-HCl, pH 7.4, 1% Nonidet P-40 (Sigma, St. Louis, Mo.) and complete proteinase inhibitor cocktail (Roche, Ind., USA). 15 μg of protein extracts were mixed with SDS sample buffer and electrophoresed onto a 10% SDS-polyacrylamide gel under reducing conditions. After transferring, the membranes (Amersham Pharmacia Biotech, Piscataway, N.J.) were incubated for 1 hour in blocking buffer (Tris-buffered saline with 0.1% Tween and 5% nonfat dry milk). The AMACR antibody was applied at 1:10.000 diluted blocking buffer overnight at 4° C. […]"}, "HDAC activity": {"tested_on": "HDAC activity", "assay": "DNA microarray of EZH2-transfected cells, EZH2-mediated gene silencing", "description": "Other molecules have been similarly tested with this approach. Cells were transfected with different EZH2 constructs and transfection efficiency was monitored by beta-galactosidase assay and was approximately 30-50%. EZH2.SET mutant expressing samples were compared to EZH2 expressing samples using the SAM analysis package (Tusher et al., PNAS 98:5116 [2001]). Data was pre-processed by multiplication by a normalization factor to adjust the aggregate ratio of medians to one, log base 2 transformed and median centered each array, individually. This pre-processed data was divided into 2 groups for comparison using a two-class, unpaired t-test. […] These 161 genes were supplemented by the values for EZH2 and then analyzed using Cluster implementing average linkage hierarchical clustering of genes. […]\nPcG proteins have been proposed to mediate their functions by repression of target genes (Laible et al., supra; Jacobs et al., Semin Cell Dev. Biol. 10:227 [1999]). To begin to test this hypothesis, RWPE prostate cells were transiently transfected with wild-type EZH2 and global gene expression alterations were monitored using DNA microarrays. […]"}, "prostate cells": {"tested_on": "prostate cells", "assay": "WST-1 cell proliferation assay after siRNA transfection", "conditions": "WST-1, caspase inhibitor added to EZH2 siRNA treated cells", "procedure": "21-nucleotide sense and antisense RNA oligonucleotides were chemically synthesized (Dharmacon Research Inc.) and annealed to form duplexes. The siRNA employed in the study were targeted to the region corresponding from 85 to 106 of the reported human EZH2 (NM004456). Control siRNA duplexes targeted luciferase, lamin and AMACR (NM014324). The human transformed prostate cell line RWPE (Webber et al., Carcinogenesis 18:1225 [1997]) and PC3 were plated at 2×10^5 cells per well in a 12 well plate (for immunoblot analysis, cell counts, and fluorescence activated cell sorting (FACS) analysis) and 1.5×10^4 cell per well in a 96 well plate (for WST-1 proliferation assays). Twelve hours after plating, the cells were transfected with 60 picomoles of siRNA duplex, sense or antisense oligonucleotides (targeting EZH2) using oligofectamine (Invitrogen). […] Cell viability was assessed 60 hours after the initial transfection.\nCell proliferation was determined with the colorimetric assay of cell viability, based on the cleavage of tetrazolium salt WST-1 by mitochondrial dehydrogenases as per manufacturers instructions (Roche, Inc.). The absorbance of the formazan dye formed, which directly correlates with the number of metabolically active cells in the culture, was measured at 450 nm (Bio-Tek instruments), an hour after the addition of the reagent. […]"}},
  "note": "Peptide text beside a SMILES is read from it. * marks the point of attachment. Cbz = O=C(OCc1ccccc1)*; CH2F = FC*",
  "data": [
    {"smiles": "C[C@]1(O)CC[C@H]2[C@@H]3CCC4=CC(=O)CCC4=C3C=C[C@@]21C", "note": "[R1881, methyltrienolone]", "values": [
      {"measurement": "AMACR expression", "setting": "LNCaP cells", "value": "no increase in AMACR expression"}
    ]},
    {"smiles": "CC(/C=C/C(=O)NO)=C\\[C@@H](C)C(=O)c1ccc(N(C)C)cc1", "note": "[trichostatin A]", "values": [
      {"measurement": "effect on EZH2-mediated gene silencing", "setting": "HDAC activity", "value": "completely abrogated the effects of EZH2"}
    ]},
    {"smiles": "COC(=O)C[C@H](NC(=O)[C@H](C)NC(=O)[C@@H](NC(=O)OCc1ccccc1)C(C)C)C(=O)CF", "note": "[z-VAD-fmk] (Cbz-Val-Ala-Asp(OMe)-CH2F)", "values": [
      {"measurement": "attenuation of EZH2 siRNA induced inhibition of cell proliferation", "setting": "prostate cells", "value": "failed to attenuate"}
    ]}
  ]
}
